Publication PMC8268581, “Identification of 3,4-Dihydro-2H,6H-pyrimido[1,2-c][1,3]benzothiazin-6-imine Derivatives as Novel Selective Inhibitors of Plasmodium falciparum Dihydroorotate Dehydrogenase” (International Journal of Molecular Sciences, 2021)

Key:
[1] = tested on: P. falciparum 3D7 strain expressing the cytosolic yeast DHODH (3D7-yDHODH); test: Confirmation assay against transgenic parasite 3D7-yDHODH; assay type: cell-based, Plasmodium falciparum; conditions: for activity at 10 µM: 72 h, relative parasite growth at 10 µM compound, read-out: Growth at 10 µM (%) Pf3D7-yDHODH; for susceptibility of Pf3D7-yDHODH parasite (in words): relative parasite growth at 10 µM, compared with wild-type 3D7
Experimental: (§1) Synchronized ring-stage parasites at 0.3% parasitemia and 2% hematocrit were cultured in a 384-well plate at 25 µL with test compounds at a final concentration in the range of 0.0003 to 10 µM with a fixed DMSO concentration of 0.4% (v/v). Parasite growth was monitored by the diaphorase-coupled P. falciparum lactate dehydrogenase (PfLDH) assay, as previously described. After 72 h, 70 µL of the assay solution (150 mM lithium L-lactate (Wako), 0.05 mg/mL 3-acetylpyridine adenine dinucleotide (Oriental Yeast Co., Ltd., Tokyo, Japan), 0.2 mg/mL nitro blue tetrazolium (Wako), 1 unit/mL diaphorase, and 100 mM Tris-HCl pH 8.0) were mixed with the parasite culture and incubated at room temperature for 40 min, and the generated nitro blue formazan was measured at 650 nm using a SpectraMax®® Paradigm®® Multi-Mode Microplate Reader. […] The EC50 was calculated using GraphPad Prism 8.0 software from the mean of quadruplets values.
The P. falciparum 3D7 strain expressing the cytosolic yeast DHODH (3D7-yDHODH) was prepared as follows. pHHyDHODH-GFP plasmid (Kerafast, Boston, MA, USA) was transfected to the P. falciparum 3D7 strain following the established transfection method. Briefly, 50 µg of plasmid dissolved in cytomix solution (120 mM KCl, 0.15 mM CaCl2, 10 mM K2HPO4/KH2PO4 pH 7.6, 25 mM HEPES-KOH pH 7.6, 2 mM ethylene glycol-bis(β-aminoethyl ether)-N,N,N′,N′-tetraacetic acid (EGTA, Dojindo), and 5 mM magnesium chloride (Wako)) was transfected into the red blood cells by the Gene Pulser Xcell (Bio-Rad). Percoll–sorbitol synchronized parasites were mixed with red blood cells containing plasmid and maintained under 5 nM WR99210 for 2 weeks. The growth of resistant parasites against DSM265 and atovaquone, as PfDHODH and complex III inhibitors respectively, was confirmed by PfLDH/diaphorase assay. A total of 10 µM PfDHODH inhibitors were tested against wild-type 3D7 and 3D7-yDHODH following the method described above in triplicate. The significance of difference between the inhibition of the two parasite strains was evaluated by Student’s t-test (Figure S4).

[2] = biological target: mammalian mitochondrial complexes II–III (Bos taurus, UniProt P00157+P35720+Q3T189+Q95123); test: succinate-cytochrome c reductase (complexes II–III) activity assay; assay type: biochemical; conditions: bovine heart mitochondria, range tested 0.0007 to 22.7 µM; read-out: IC50 Mammalian Mitochondrial CII–III
Experimental: (§2) Bovine heart mitochondria were prepared as previously described. The NADH-cytochrome c reductase (complexes I–III) and succinate-cytochrome c reductase (complexes II–III) activities were assayed in 384-well plates following an established protocol with small modifications. Complex I–III activity was assayed in a reaction mix containing 50 mM phosphate buffer pH 7.4, 2 mM KCN, 200 µM cytochrome c (cytochrome c from horse heart, Nacalai tesque), and 15 µg/mL mitochondria. Plates containing 1 µL serial dilutions of PfDHODH inhibitors were prepared and mixed with 38 µL of the reaction mix, as described above. The reaction was started by the addition of 5 µL of 2.6 mM NADH, and the assay was performed as described for PfDHODH, but at 550 nm and with 15 min of incubation. Complex II–III activity was assayed similarly to complex I–III activity but with 100 µM cytochrome c and 25 µg/mL mitochondria, and the reaction was started by 10 mM succinate. For both assays, DMSO and 5 µM ascochlorin were used as negative and positive controls, respectively. Assays were performed in triplicate.

[3] = Cytotoxicity assay, HDF (Cell Counting Kit-8); assay type: cell-based; conditions: human dermal fibroblast (HDF) cells, normal human dermal fibroblasts
Experimental: Human dermal fibroblast cells (HDF, Zenbio, Inc., Durham, NC, USA) were cultured in Dulbecco’s Modified Eagle Medium/Nutrient Mixture F-12 medium (DMEM/F12, Gibco), human pancreatic carcinoma cells (PANC-1, DS Pharma Biomedical, Co., Ltd.) were cultured in DMEM (Gibco), and human colorectal adenocarcinoma cells (DLD-1, Taiho Pharmaceutical Company) were cultured in RPMI-1640 medium (FUJIFILM Wako Pure Chemicals). The culture mediums were supplemented with 10% (v/v) heat-inactivated fetal bovine serum (Gibco) and the cells were maintained at 37 °C under 5% CO2.
HDF, PANC-1, and DLD-1 were seeded at 2.5 × 10^4 cells/well on a 96-well plate and incubated at 37 °C under 5% CO2 overnight. The cells were then washed with PBS and the medium was replaced with 99 µL of fresh media. Then, 1 µL of the compounds or DMSO was added to the respective wells. As controls, wells containing 1% (v/v) DMSO in column 1 and wells containing only the culture medium in column 12 were used as the negative and positive controls, respectively. After 48 h of incubation, the cells were washed with PBS, and 99 µL of fresh media was replaced, followed by the addition of 10 µL of Cell Counting Kit-8 (Dojindo) to each well. After 3 h of incubation, the absorbance was measured at 450 nm using a SpectraMax®® Paradigm®® Multi-Mode microplate Reader. The calculation of cell viability in the test well was based on the absorbance of control wells according to the manufacturer’s protocol. The mean of quadruplet values was used to calculate the CC50 using GraphPad Prism 8.0 software.

[4] = biological target: mammalian mitochondrial complexes I–III (Bos taurus, UniProt P00157+P03887+P17694+P42026); test: NADH-cytochrome c reductase (complexes I–III) activity assay; assay type: biochemical; conditions: bovine heart mitochondria, range tested 0.0007 to 22.7 µM; read-out: IC50 Mammalian Mitochondrial CI–III
Experimental: as §2

[5] = tested on: P. falciparum 3D7; test: In vitro antimalarial assay (PfLDH/diaphorase); assay type: cell-based; conditions: Plasmodium falciparum, growth inhibition, 72 h, 0.0003 to 10 µM, read-out: EC50 Pf3D7
Experimental: This assay was conducted using human red blood cells (RBC) following the guidelines of the ethics committee of Nagasaki University (permission no. 19). Human RBC was obtained from the Japanese Red Cross Society. The P. falciparum 3D7 strain was cultured in 2% hematocrit type O human RBC in RPMI-1640 medium (Gibco) supplemented with 23.8 mM sodium bicarbonate (Wako), 50 mg/L hypoxanthine (Wako), 25 mg/L gentamycin (Sigma), and 0.5% (w/v) AlbuMAX®® II (Gibco) under a 5% O2, 5% CO2, and 90% N2 atmosphere at 37 °C. Parasites were synchronized with 5% (w/v) D-sorbitol (Wako).
as §1

| Compound | activity at 10 µM [1] [%] | IC50 [2] [µM] | EC50 at 48 h [3] [µM] | IC50 [4] [µM] | EC50 [5] [nM] | susceptibility of Pf3D7-yDHODH parasite (in words) [1] |
| --- | --- | --- | --- | --- | --- | --- |
| c1ccc(-c2ccc3c(c2)C2=NCCCN2S3)cc1 [Compound 36] | 32.5 ± 10.1 | > 22.7 | 8.38 | > 22.7 | 4160 ± 90 |  |
| N=C1Sc2cc(-c3ccccc3-c3ccccc3)ccc2C2=NCCCN12 [Compound 27] | 0.25 ± 0.04 | > 22.7 | > 10 | > 22.7 | 390 ± 50 |  |
| c1ccc(-c2ccc3c(c2)SN2CCCN=C32)cc1 [Compound 30] | 63.6 ± 5.87 | > 22.7 | > 10 | > 22.7 | 9670 ± 5090 | reduced susceptibility |
| N=C1Sc2cc(-c3ccc4c(c3)OCO4)ccc2C2=NCCCN12 [Compound 3] | -0.23 ± 0.01 | > 22.7 | > 10 | > 22.7 | 1160 ± 20 |  |
| CC(C)Oc1cccc(-c2ccc3c(c2)SC(=N)N2CCCN=C32)c1 [Compound 22] | -0.06 ± 0.24 | > 22.7 | > 10 | > 22.7 | 900 ± 440 |  |
| N=C1Sc2cc(-c3ccc4ccccc4c3)ccc2C2=NCCCN12 [Compound 1] | -0.62 ± 0.07 | > 22.7 | > 10 | > 22.7 | 430 ± 180 |  |
| N=C1Sc2cc(-c3cccc([N+](=O)[O-])c3)ccc2C2=NCCCN12 [Compound 21] | 103 ± 0.67 | > 22.7 | > 10 | > 22.7 | 850 ± 120 | reduced susceptibility |
| N=C1Sc2cc(-c3ccccc3)ccc2C2=NCCCN12 [Compound 12] | -0.22 ± 0.12 | > 22.7 | > 10 | > 22.7 | 1150 ± 70 |  |
| N#Cc1ccc(-c2ccc3c(c2)SC(=N)N2CCCN=C32)cc1 [Compound 14] | 105 ± 0.47 | > 22.7 | > 10 | > 22.7 | 1210 ± 40 | reduced susceptibility |
| N=C1Sc2cc(-c3ccc(OC(F)(F)F)cc3)ccc2C2=NCCCN12 [Compound 18] | 2.54 ± 0.42 | > 22.7 | > 10 | > 22.7 | 370 ± 130 |  |
| O=[N+]([O-])c1ccc(-c2ccc3c(c2)SN2CCCN=C32)cc1 [Compound 39] | 1.48 ± 0.14 | > 22.7 | > 10 | > 22.7 | 1140 ± 60 |  |
| c1ccc2c(-c3ccc4c(c3)SN3CCCN=C43)cccc2c1 [Compound 31] | 0 | > 22.7 | > 10 | > 22.7 | 330 ± 10 |  |
| N=C1Sc2cc(-c3ccc4c(C(=O)OC(F)(F)F)c[nH]c4c3)ccc2C2=NCCCN12 [Compound 6] | 104.4 ± 0.11 | > 22.7 | > 10 | > 22.7 | 370 ± 50 | reduced susceptibility |
| CSc1ccc(-c2ccc3c(c2)SC(=N)N2CCCN=C32)cc1 [Compound 17] | -0.5 ± 0.01 | > 22.7 | > 10 | > 22.7 | 1620 ± 560 |  |
| c1cc2c(cc1-c1ccc3c(c1)SN1CCCN=C31)OCO2 [Compound 32] | 0.11 ± 0.03 | > 22.7 | > 10 | > 22.7 | 1850 ± 530 |  |
| CCc1cccc(-c2ccc3c(c2)SC(=N)N2CCCN=C32)c1 [Compound 25] | 0.01 ± 0.15 | > 22.7 | > 10 | > 22.7 | 1770 ± 830 |  |
| N=C1Sc2cc(-c3ccc(C(F)(F)F)cc3)ccc2C2=NCCCN12 [Compound 15] | -0.38 ± 0.17 | > 22.7 | > 10 | > 22.7 | 1000 ± 50 |  |
| N=C1Sc2cc(-c3ccc4cnccc4c3)ccc2C2=NCCCN12 [Compound 5] | 26 ± 8.27 | > 22.7 | > 10 | > 22.7 | 1130 ± 50 |  |
| O=[N+]([O-])c1ccccc1-c1ccc2c(c1)SN1CCCN=C21 [Compound 43] | 31.1 ± 2.38 | > 22.7 | 9.44 | > 22.7 | 1110 ± 80 | reduced susceptibility |
